Experimental findings from US4137414A, “5-Substituted-2-phenylbenzo[b]thiophene-3-alkylamines and related compounds” (G. D. Searle & Co., priority 1977, dated 1979) are described below.

The subject of assay [1] is Escherialla coli ATCC 8739. As to the kind of experiment: Anti-bacterial assay against aerobic bacteria (serial dilution in nutrient broth). It is filed as cell-based. The conditions noted are these: no growth of organism; aerobic incubation 20-24 hr. at 37° C.; tested at 100, 10, 1, 0.1 mcgm per ml; read-out: active (minimum concentration at which a compound is active). The method, then:
Evidence of the anti-bacterial utility of the instant compounds vis-a-vis aerobic bacteria is provided by the following standardized test. Nutrient broth (manufactured by Baltimore Biological Laboratories) is prepared by recommended by the manufacturer, sterilized, and inoculated with Escherialla coli ATCC 8739 q.s. one million cells per ml, determined spectrophotometrically. Meanwhile, compound is heated in sterile distilled water at a concentration of 1000 mcgm per ml for 20 minutes at 80° C. This compound preparation is serially diluted and mixed with sufficient inoculated medium to afford concentrations of 100, 10, 1, and 0.1 mcgm of compound per ml. The mixtures thus obtained are incubated aerobically for 20-24 hr. at 37° C. and then examined grossly for growth of the organism. Controls are provided by concurrent incubations identical with the above except that (1) reference standards (4.3, 0.43, 0.043, and 0.0043 mcgm per ml of streptomycin sulfate and 6667, 667, 67, and 7 units of potassium penicillin G) are substituted for compound and (2) neither compound nor reference standard is present. Compounds are considered active if, at the maximum concentrations tested, no growth of organism is observed and no aberrancy is apparent in respect of the controls. Potency is expressed as the minimum concentration at which a compound is active.

The target of assay [2] is dopamine receptors (3H-dopamine sites). As to the kind of experiment: Receptor Binding Assay: stereospecific binding of 3H-dopamine to calf caudate membranes. The settings on record: displacement of 5nM 3H-dopamine; calf caudate membrane homogenate; 37° C., 15 minutes.
Experimental: (§1) The procedure for this assay is as follows:
(§2) Calf caudate nuclei were dissected from freshly obtained brains and stored frozen at -76° C.
(§3) Test compounds were added as 20 μl aliquots from stock solutions prepared in absolute ethanol or 0.1% ascorbic acid.
(§4) Immediately following all incubations, proteins were recovered on Whatman GF/B glass fiber filters under reduced pressure. Trapped membranes were solubilized off the filters using 1 ml NCS tissue solubilizer (Amersham/Searle Corp.) at 50° C. for 1 hour. Then, pH was adjusted by adding 0.1 ml glacial acetic acid, 10 ml PCS (Amersham/Searle) added and samples analyzed for membrane-bound radioactivity using a Mark II liquid scintillation counter (Searle Analytical, Inc.).
(§5) IC50 values were determined from log-probit plots using 4-6 concentrations of each compound.
(§6) There as two indications from the assay data as to whether a compound is a probable neuroleptic. Firstly, it must be a dopamine antagonist. […] In other words, it must have a high ^3 H-DA/^3 H-HALO, IC50 ratio.
Assay [3] addresses T1, dopamine receptors (3H-Haloperidol sites) (Bos taurus, UniProt P20288). As to the kind of experiment: biochemical.
Experimental: as §1, §2, §3, §4, §5, §6
Assay [4] addresses T1, dopamine receptors (3H-Haloperidol sites). The settings on record: for antagonist ratios: in words, compared with known neuroleptics.
Experimental: as §1, §2, §3, §4, §5, §6

In brackets after ≈: the same amount, converted by molar mass. Where a name gives a salt, the structure may show the parent alone. Read-outs that look alike come from different tables or passages of the source.

T1 sequence (P20288 whole entry): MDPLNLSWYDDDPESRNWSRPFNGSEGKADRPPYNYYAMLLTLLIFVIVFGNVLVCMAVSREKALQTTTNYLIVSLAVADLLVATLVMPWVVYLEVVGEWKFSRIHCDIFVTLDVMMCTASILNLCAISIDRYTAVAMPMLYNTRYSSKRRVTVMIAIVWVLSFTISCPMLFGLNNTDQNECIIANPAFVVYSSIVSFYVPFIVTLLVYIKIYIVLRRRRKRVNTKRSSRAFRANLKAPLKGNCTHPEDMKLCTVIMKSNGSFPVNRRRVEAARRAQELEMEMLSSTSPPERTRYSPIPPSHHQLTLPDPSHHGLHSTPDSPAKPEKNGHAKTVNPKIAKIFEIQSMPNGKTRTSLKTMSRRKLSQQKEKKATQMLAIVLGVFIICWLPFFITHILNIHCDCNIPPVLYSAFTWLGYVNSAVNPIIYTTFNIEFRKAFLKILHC

With `CN1CCN(CCc2c(-c3ccccc3)sc3ccc(Cl)cc23)CC1` [1-[3-(5-chloro-2-phenylbenzo[b]thiophen-3-yl)ethyl]-4-methylpiperazine dihydrochoride], in assay [1], the MIC was determined as 10 µg/mL (≈ 27 µM).

On to `CN1CCN(CCCc2c(-c3ccccc3)sc3ccc(Cl)cc23)CC1.Cl.Cl` [1-[3-(5-chloro-2-phenylbenzo[b]thiophen-3-yl)propyl]-4-methylpiperazine dihydrochloride], for which, in assay [1], the MIC worked out at 100 µg/mL.

Consider `OCCN1CCN(Cc2c(-c3ccccc3)sc3ccc(Cl)cc23)CC1` [1-[(5-chloro-2-phenylbenzo[b]thiophen-3-yl)methyl]-4-ethanol piperazine dihydrochloride], for which the MIC in assay [1] was found to be 100 µg/mL.

What is called IC50 is the concentration that inhibits the measured activity by half. Take `Cl.Clc1ccc2sc(-c3ccccc3)c(CCN3CCCC3)c2c1` [1[2-(5-chloro-2-phenylbenzo[b]thiophen-3-yl)ethyl]pyrrolidine hydrochloride]: the IC50 is 48 µM in assay [2] and 0.65 µM in assay [3]. Further, the “Ratio (^3 H-DA/^3 H-HALO IC50 ratio)” value in assay [4] (IC50 3H-dopamine / IC50 3H-Haloperidol, high ratio indicates dopamine antagonist) is 74. For the same molecule, in assay [4], the antagonist ratios result is “comparable to clozapine and chloropromazine”.

`CN(C)CCc1c(-c2ccccc2)sc2ccccc12` [2-phenylbenzo[b]thiophene-3-N,N-dimethylethanamine hydrochloride] displayed an IC50 in assay [2] of 12 µM. The IC50 in assay [3] was found to be 0.62 µM. In assay [4], the “Ratio (^3 H-DA/^3 H-HALO IC50 ratio)” value came to 21; the antagonist ratios entry was “comparable to clozapine and chloropromazine”.

In assay [2], `CCN(CC)CCc1c(-c2ccccc2)sc2ccc(Cl)cc12` [5-chloro-2-phenylbenzo[b]thiophene-3-N,N-diethylethanamine hydrochloride] yielded an IC50 of 6 µM. Moreover, in assay [3], the IC50 came out at 0.12 µM. In assay [4], the “Ratio (^3 H-DA/^3 H-HALO IC50 ratio)” value is reported as 50; the antagonist ratios result is “comparable to clozapine and chloropromazine”.

On to `CN(C)CCc1c(-c2ccccc2)sc2ccc(Cl)cc12` [5-chloro-2-phenylbenzo[b]thiophene-3-N,N-dimethylethanamine hydrochloride], for which, in assay [2], the IC50 is 20 µM. Moreover, in assay [3], half-maximal inhibition (IC50) was put at 0.65 µM. Besides, the MIC in assay [1] amounted to 100 µg/mL. Moreover, in assay [4], the “Ratio (^3 H-DA/^3 H-HALO IC50 ratio)” value was 31; the antagonist ratios entry was “comparable to clozapine and chloropromazine”.

As for `CN(C)CCCc1c(-c2ccccc2)sc2ccc(Cl)cc12` [5-chloro-2-phenylbenzo[b]thiophene-3-N,N-dimethylpropanamine hydrochloride], the IC50 in assay [2] was determined as 48 µM. For the same molecule, half-maximal inhibition in assay [3] (IC50) was put at 0.35 µM. Besides, in assay [4], the “Ratio (^3 H-DA/^3 H-HALO IC50 ratio)” value is 137; the antagonist ratios result is “comparable to clozapine and chloropromazine”.

As for `Cl.NCCc1c(-c2ccccc2)sc2ccc(Cl)cc12` [5-chloro-2-phenylbenzo[b]thiophene-3-ethanamine hydrochloride], the MIC in assay [1] was 10 µg/mL.
